Assay results reported in patent US20100016262A1, “Compositions and methods for reducing hepatotoxicity associated with drug administration and treating non-alcoholic fatty liver disease, non-alcoholic steatohepatitis and associated cirrhosis” (YALE UNIVERSITY, priority 2007, published 2010).
“Also recorded” adds a separate entry of the source.

Experiments:
[1] = test system: wild-type mice; experiment: Acetaminophen (APAP) induced hepatotoxicity in mice (500 mg/kg ip); type: in vivo, mouse
Method: • Animals. C57BL/6 mice were purchased from commercial sources. NALP3 −/−, IL-18 −/− ASC −/−, IPAF −/− and TLR9−/− mice were backcrossed nine generations onto the C57BL/6 background. Caspase 1 −/− mice were backcrossed 5-6 generations onto the C57BL/6 background. These mice have been described previously(39, 40). IL-1β was neutralized in by using the anti-IL-1β antibody from clone B 122 (a gift of R. Schreiber, Washington University) at a dose of 0.2 mg/mouse iv twice a day for a total of 48 hours after giving APAP. Control mice received Armenian hamster isotype control antibody. For survival experiments animals were euthanized when they became moribund using criteria of lack of response to stimuli or lack of righting reflex. Animal protocols were approved by the Yale University animal care and use committee. [include references for IPAF−/− (M. Lara-Tejero et al. JEM 2006) and IL-18−/−. Need to add TLR9−/− and TLR3−/−] • Acetaminophen induced hepatotoxicity. APAP (Sigma, MO) solution was made fresh for each experiment in PBS at 20 mg/ml and heated in a water bath to 55° C. to dissolve. APAP was dosed at 500 mg/kg and injected I.P after 15 hrs of starvation. Animals were euthanized by ketamine/xylazine injection at 12 hours for collection of serum, isolation of liver lymphocytes or collection of liver tissue for histology, or they were observed every four hours for 72 hours until they reached criteria for euthanasia (lack of response to stimuli or lack of righting reflex). • Aspirin/clopidogrel/SC-560. Aspirin (Sigma, MO) was made fresh for each experiment. For dosing prior to APAP it was dissolved in single deionized water at 60 mg/l and heated to 42° C. with rapid stirring to dissolve, then rapidly placed in an ice water bath to cool. Aspirin in water was given to the mice 60-72 hours prior to APAP injection. Assuming water consumption of 3-5 ml per day this dose would be equivalent to a 300-500 mg dose in an 80 kg adult human. For co-administration of APAP and aspirin, aspirin was gavaged at a dose of 6 mg/kg in a volume of 100 ul of water immediately after ip injection of APAP. Clopidogrel (Gilead Pharmaceuticals, CA.) was dissolved in PBS at 6 mg/ml and administered by gavage of 100 ul, 30 mg/kg, every 24 hours beginning 48 hours prior and ending 24 hours after APAP injection. Cox-1 inhibitor (SC-560). SC-560 (Cayman chemical, MI) was dissolved at 50 mg/ml in DMSO and further dissolved in PBS in order to gavage a dose of 5 mg/kg in 100 ul. It was administered twice per day beginning 60 hours prior to Tylenol and continued for 48 hours after APAP injection as previously established(41). • Uric Acid Peritonitis. Peritonitis was induced with uric acid crystals as previously described by injecting 3 mg of MSU intraperitoneally per mouse(27). Three hours after injection peritoneal lavage was performed on mice euthanized by isoflurane inhalation. Neutrophil infiltration was evaluated by flow cytometry. The percent of Gr-1 (BD Pharmingen, CA) positive cells was multiplied by the total cell counts. • Liver sinusoidal endothelial cell (LSEC) isolation. After in-situ pronase digestion the non-parenchymal cell suspension is centrifuged for 5 min at 100 g to remove most of the parenchymal cells. This process is repeated until no pellet is observed. The supernatant enriched in LSEC is centrifuged for 10 min at 350 g. The pellet is resuspended in PBS and centrifuged for 10 min at 350 g. The cells are resuspended in PBS and layered (3.3 ml) on the top of two-step percoll gradient (put the 5 ml of 50% percoll at the bottom and put the 6.6 ml of 25% percoll at the top). The gradients are centrifuged at 900 g for 20 min and the intermediate layer included LSEC is collected and cultured in the media (EGM™-2 MV—Microvascular Endothelial Cell Medium-2, CAMBREX, Charles City, Iowa). • ODN2088 and IRS 954 injection.

[2] = molecular target: T1, NALP3 inflammasome (Mus musculus, UniProt Q8R4B8); experiment: Uric acid (MSU crystal) peritonitis, model of NALP3 inflammasome activation; type: in vivo; settings: low dose aspirin (60 mg/l) in drinking water for three days before MSU 3 mg/mouse ip; lavage after 3 hours; P<0.0001
T1 construct: endogenous in cells; host or cells: living C57BL/6 wild-type mice (peritoneal cavity, in vivo)
Method: • Animals. C57BL/6 mice were purchased from commercial sources. NALP3 −/−, IL-18 −/− ASC −/−, IPAF −/− and TLR9−/− mice were backcrossed nine generations onto the C57BL/6 background. Caspase 1 −/− mice were backcrossed 5-6 generations onto the C57BL/6 background. These mice have been described previously(39, 40). IL-1β was neutralized in by using the anti-IL-1β antibody from clone B 122 (a gift of R. Schreiber, Washington University) at a dose of 0.2 mg/mouse iv twice a day for a total of 48 hours after giving APAP. Control mice received Armenian hamster isotype control antibody. For survival experiments animals were euthanized when they became moribund using criteria of lack of response to stimuli or lack of righting reflex. Animal protocols were approved by the Yale University animal care and use committee. [include references for IPAF−/− (M. Lara-Tejero et al. JEM 2006) and IL-18−/−. Need to add TLR9−/− and TLR3−/−] • Acetaminophen induced hepatotoxicity. APAP (Sigma, MO) solution was made fresh for each experiment in PBS at 20 mg/ml and heated in a water bath to 55° C. to dissolve. APAP was dosed at 500 mg/kg and injected I.P after 15 hrs of starvation. […] Neutrophil infiltration was evaluated by flow cytometry. […]

[3] = test system: mice and rats; settings: aspirin 200-600 mg/kg, dose range toxic to humans; cited from earlier work
[4] = test system: THP1 cells; experiment: LPS stimulation of THP1 cells, real-time PCR for pro-IL-1β; type: cell-based, human; settings: overnight with aspirin (1.5 mM, 0.15 mM), then LPS 10 μg/ml for 8 hours; P<0.05
[5] = aspirin pre-treatment, 12 hours after APAP, p<0.03
[6] = aspirin treatment, after APAP, p<0.005

T1 sequence (Q8R4B8 whole entry): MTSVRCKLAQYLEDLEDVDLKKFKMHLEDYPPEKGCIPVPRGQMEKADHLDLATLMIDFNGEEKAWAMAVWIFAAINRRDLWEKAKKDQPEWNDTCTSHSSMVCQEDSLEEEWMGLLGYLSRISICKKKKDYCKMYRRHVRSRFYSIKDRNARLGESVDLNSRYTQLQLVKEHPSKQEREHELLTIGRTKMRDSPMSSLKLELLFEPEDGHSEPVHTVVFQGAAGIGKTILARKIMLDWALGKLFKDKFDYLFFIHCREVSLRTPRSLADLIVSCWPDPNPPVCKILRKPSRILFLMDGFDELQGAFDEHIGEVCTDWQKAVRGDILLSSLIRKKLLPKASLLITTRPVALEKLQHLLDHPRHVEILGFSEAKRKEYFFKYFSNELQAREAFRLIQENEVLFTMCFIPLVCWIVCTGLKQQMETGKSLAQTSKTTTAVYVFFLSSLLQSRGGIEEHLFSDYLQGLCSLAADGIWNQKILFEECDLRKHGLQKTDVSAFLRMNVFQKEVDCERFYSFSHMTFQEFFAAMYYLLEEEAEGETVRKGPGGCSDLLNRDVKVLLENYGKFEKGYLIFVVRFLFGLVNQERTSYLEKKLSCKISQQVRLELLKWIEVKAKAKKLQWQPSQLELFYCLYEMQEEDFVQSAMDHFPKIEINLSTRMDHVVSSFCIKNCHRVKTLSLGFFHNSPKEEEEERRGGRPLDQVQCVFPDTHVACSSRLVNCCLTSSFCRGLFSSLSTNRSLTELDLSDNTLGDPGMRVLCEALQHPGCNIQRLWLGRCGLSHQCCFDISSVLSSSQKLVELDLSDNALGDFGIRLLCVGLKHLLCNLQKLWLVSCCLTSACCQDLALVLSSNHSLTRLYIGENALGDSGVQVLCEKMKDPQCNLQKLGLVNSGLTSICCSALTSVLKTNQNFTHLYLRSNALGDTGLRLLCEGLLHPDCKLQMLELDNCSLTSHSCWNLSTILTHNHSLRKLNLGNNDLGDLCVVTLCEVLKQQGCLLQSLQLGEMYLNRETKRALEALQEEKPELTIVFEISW

COc1ccc(-n2nc(C(F)(F)F)cc2-c2ccc(Cl)cc2)cc1 [SC-560]
survival after APAP (protection against APAP toxicity) ([1]; SC-560 5 mg/kg gavage twice daily from 60 hours before to 48 hours after APAP, n=10 vs PBS n=10, P<0.97): did not protect

CC(=O)Oc1ccccc1C(=O)O [aspirin, acetylsalicylic acid]
neutrophil exudates (Gr-1 positive neutrophils in peritoneal lavage) [2]: eightfold reduction
serum IL-1β levels (ELISA) ([1]; ASA in drinking water, after APAP, p<0.02): significant reduction
survival after APAP ([1]; aspirin 60 mg/l in drinking water for 3 days before APAP 500 mg/kg ip, n=17 vs control n=13, P<0.02): markedly improved survival
survival ([1]; aspirin given concordantly with APAP, 6 mg/kg by gavage immediately after APAP, control 22% ±19%, P<0.04): 43% ±11%
liver histology (H&E), liver injury and hemorrhage ([1]; aspirin in drinking water for three days before APAP, 12 hours after APAP): markedly improved; also recorded: significant reduction in APAP induced liver injury and hemorrhage
pro-IL-1β message, whole liver (real-time PCR) [1, 5]: reduced to normal levels
pro-IL-18 message, whole liver (real-time PCR) [1, 5]: reduced to normal levels
serum ALT ([1]; aspirin pre-treatment, 12 hrs after APAP, P<0.04): significantly lower
IFN-γ expression, whole liver (real-time PCR) [1, 6]: reduced
TNF-α expression, whole liver (real-time PCR) [1, 6]: reduced
liver injury from APAP [3]: reduce liver injury
survival from APAP [3]: not improve survival
pro-IL-1β transcript up-regulation by LPS [4]: reduced

COC(=O)[C@H](c1ccccc1Cl)N1CCc2sccc2C1 [clopidogrel]
survival after APAP (protection against APAP toxicity) ([1]; clopidogrel 30 mg/kg gavage every 24 hrs from 48 hours before to 24 hours after APAP, n=15 vs PBS n=15, P<0.31): did not protect
